# Laboratory results published in patent US8937038B2, “Composition containing peptide ligand that bonds with CXCR2 for treating infective and inflammatory diseases” (priority 2010, dated 2015).
# Assays:
# CLP mice [1] = assay: Histological analysis (hematoxylin and eosin) of major internal organs of CLP mice; assay type: in vivo, mouse; conditions: FIG. 7
# Method: A mouse was subjected to CLP surgery, and after 2 hours, PBS or Ac-PGP was injected at a dose of 17.5 mg/kg to the mouse. After the CLP surgery, the mouse was sacrificed within 24 hours, and the lung of the mouse was fixed, microtomed, and stained with hematoxylin and eosin so as to perform morphological analysis.
# (§1) The defunctionalization of the major internal organs such as lungs was associated with the mortality after sepsis. A morphological change was observed by performing hematoxylin and eosin staining. […] Liver tissues from the CLP mice were necrotized to a higher extent, but the necrosis of the liver tissues was decreased by administration of Ac-PGP. […] Most of the apoptosis in the thymus or spleen of a CLP mouse was caused in the cortex of the thymus or spleen in which immature cells were populated. When compared with those of the sham or Ac-PGP mice, an important morphological change in apoptotic cells of the CLP mice is that small compact pyknosis containing multiple nuclear fragments were present in apoptotic lymphocytes (FIG. 7). […] The apoptosis of immune cells was also accompanied with sepsis.
# E. coli-vaccinated mice = assay: Survival in E. coli-induced sepsis model; assay type: in vivo; conditions: E. coli 1×10^9 cells/mouse; 17.5 mg/kg four times from 2 hours after vaccination; compared with PBS
# Method: (§2) Male WT ICR mice were used to evaluate a therapeutic effect of Ac-PGP. IFN-γ-deficient mice (kindly provided by Y. K. Kim at the Pohang University of Science and Technology, Pohang, Republic of Korea) were used for mechanism study. All Examples in which animals were used were performed according to the instructions with permission of the Institutional Review Board (IRB) for the care and management of laboratory animals at Dong-A University. In the case of the CLP, mice were anesthetized with pentothal sodium (50 mg/kg, intraperitoneally injected), and abdomen of each mouse was cut along a central cutting line to expose an appendix. Then, an ileocecal valve of the appendix was tied up, both surfaces of the ileocecal valve were punctured twice with a 22-gauge needle (or punctured once to measure a production amount of cytokines), and the abdomen was sutured. Sham CLP mice were treated in the same manner as described above, except that CLP of the appendix was not performed. A survival rate of the mice was monitored every day for 10 days. In the case of the LPS or E. coli model, E. coli and LPS were intraperitoneally injected at concentrations of 1×10^9 cells/mouse and 60 mg/kg, respectively. A survival rate of the mice was monitored once a day for 10 days.
# In another mouse model of sepsis, a therapeutic effect of Ac-PGP was also evaluated.
# caspase-3 = assay: Caspase-3 activation in splenocytes of CLP mice (immunohistochemistry); assay type: in vivo, mouse; conditions: FIG. 23
# Method: (§3) First, a tissue embedded in paraffin was deparaffinized using a typical histological protocol, and performed digoxigenin-dUTP nick end labeling (TUNEL) analysis. Sections were permeated into the Triton X-100 at 4° C. for 2 minutes, and the sections were flooded in terminal deoxynucleotidyl transferase (TdT) and a TUNEL reagent at 37° C. for 60 minutes. A percentage of apoptotic cells (TUNEL-positive cells) was determined by counting 500 splenocytes under an optical microscope. Also, the tissue embedded in paraffin was deparaffinized using a typical histological protocol, and immunohistochemical analysis was performed on the microtomed sections of caspase-3 (Wang J. et al. 2001 Proc. Natl. Acad. Sci. USA 98:4038-43).
# (§4) The apoptosis of immune cells is associated with the mortality on sepsis. Here, the CLP was proven to remarkably increase apoptosis of splenocytes (FIG. 22). […] Apoptosis of lymphocytes was induced by activation of some major caspases including caspase-3. Therefore, not only the effect of Ac-PGP on activation of caspase-3 but also the effect of CLP activation by caspase-3 were examined (FIG. 23).
# human neutrophils = assay: Cytokine production by LPS-stimulated human neutrophils; assay type: cell-based; conditions: human neutrophils stimulated with LPS
# Description: All kinds of protocols used in human beings were approved by the Institutional Review Board (IRB) at Dong-A University Hospital, and prior consents were obtained from all blood donors. Peripheral blood was collected from healthy donors, and human peripheral monocytes were separated using a Histopaque-1077 gradient. Neutrophils were separated through methods such as dextran precipitation of red blood cell, hypotonic lysis, and usage of lymphocyte isolation medium gradient, as known in the related art (Bae, Y. S. et al. Blood 97, 2854-2862(2001)). The separated human leukocytes were used immediately.
# Next, an effect of the Ac-PGP on production of cytokines by human neutrophils and PBMCs was examined. […] A human CXCR2 chemokine agonist CXCL8 had few effects on production of TNF-α or IFN-γ stimulated with LPS (FIG. 28 to FIG. 31). Therefore, the Ac-PGP could improve both antiseptic activities in leukocytes derived from human beings and mice.
# CLP mice [2] = assay: Apoptosis of immune cells (TUNEL) in CLP mice; assay type: in vivo, mouse
# Method: as §3, §1, §4
# CLP mice [3] = assay: Survival of CLP sepsis mice; assay type: in vivo, mouse
# Method: as §2
# An experimental therapeutic effect of Ac-PGP on sepsis was examined in CLP using albino Institute of Cancer Research (ICR) mice. Survival of the mice was monitored for 10 days after CLP. On the second day after the CLP, only 20% of untreated WT mice survived (FIG. 1).
# The Ac-PGP was evaluated to determine whether the antiseptic activity of Ac-PGP served through CXCR2 that was a known receptor of Ac-PGP.
substance,measurement,setting,value
acetylated-Pro-Gly-Pro [Ac-PGP],necrosis of the liver tissues,CLP mice [1]; 17.5 mg/kg 2 hours after CLP,decreased
same,formation of alveolar congestion and thrombotic lesions in the lungs,CLP mice [1],remarkably suppressed
same,death rate,E. coli-vaccinated mice,death rate decreased
same,activation of caspase-3,caspase-3,remarkably suppressed
same,production of TNF-α,human neutrophils; FIG. 28,remarkably suppressed
same,production of IFN-γ,human neutrophils; FIG. 30,remarkably improved
same,apoptosis of the immune cells in the spleen,"CLP mice [2]; CLP mice, FIG. 8",remarkably suppressed
same,apoptosis of the immune cells in the thymus,"CLP mice [2]; CLP mice, FIG. 9",remarkably suppressed
same,apoptosis of splenocytes,"CLP mice [2]; CLP mice, FIG. 22",remarkably suppressed the apoptosis of splenocytes
same,inhibitory effect of the apoptosis of splenocytes by Ac-PGP,"CLP mice [2]; IFN-γ-deficient CLP mice, FIG. 22",remarkably relieved
same,survival rate,"CLP mice [3]; 17.5 mg/kg injected 3 or 4 times from 2 hours after CLP at an interval of 12 hours, FIG. 2",highly increased
same,survival rate,"CLP mice [3]; CLP mice pretreated with CXCR2-selective antagonist SB225002, FIG. 5",could not improve the survival rate
same,survival rate,"CLP mice [3]; CXCR2-deficient sepsis mice, FIG. 6",could not improve a survival rate
same,survival rate,CLP mice [3]; administered 4 to 5 times at 17.5 mg/kg,highest increase in survival rate
same,therapeutic effect (survival),"CLP mice [3]; injected 10 hours after the CLP, FIG. 3",a therapeutic effect was still exhibited
same,survival of the mice,"CLP mice [3]; injection of 7.5, 12.5 or 17.5 mg/kg, compared with PBS-injected control, FIG. 1",remarkably increased survival of the mice
same,survival rate,"CLP mice [3]; subcutaneous administration 2 hours after CLP, various doses, monitored 10 days, FIG. 1",remarkably increased the survival rate in a dose-dependent manner
